Measurements from the NIST ThermoML archive (doi:10.1016/j.jct.2011.10.023).

Conditions: Liquid, Vibrating tube method

CCCCCCCCO [octan-1-ol]
mass density [kg/m3]
Conditions | 278.15 K | 288.15 K | 298.15 K | 308.15 K | 318.15 K | 328.15 K | 338.15 K | 348.15 K | 358.15 K
100 kPa | 835.2 | 828.4 | 821.4 | 814.5 | 807.5 | 800.4 | 793.2 | 785.6 | 778
1000 kPa | 835.7 | 829 | 822 | 815.1 | 808.1 | 801.1 | 793.9 | 786.4 | 778.8
5000 kPa | 838 | 831.5 | 824.6 | 817.8 | 811 | 804.1 | 796.9 | 789.8 | 782.3
10000 kPa | 841 | 834.4 | 827.7 | 821.1 | 814.4 | 807.7 | 800.8 | 793.6 | 786.4
15000 kPa | 843.7 | 837.3 | 830.7 | 824.2 | 817.7 | 811.1 | 804.4 | 797.4 | 790.4
20000 kPa | 846.4 | 840.1 | 833.6 | 827.2 | 820.8 | 814.4 | 807.8 | 801 | 794.1
25000 kPa | 849 | 842.8 | 836.4 | 830.1 | 823.8 | 817.5 | 811.1 | 804.5 | 797.7
30000 kPa | 851.5 | 845.5 | 839.1 | 833 | 826.8 | 820.5 | 814.2 | 807.8 | 801.1
35000 kPa | 854 | 848 | 841.8 | 835.7 | 829.6 | 823.5 | 817.3 | 810.9 | 804.5
40000 kPa | 856.4 | 850.5 | 844.4 | 838.4 | 832.4 | 826.4 | 820.3 | 814 | 807.7
45000 kPa | 858.8 | 852.9 | 846.9 | 841 | 835.1 | 829.1 | 823.1 | 817 | 810.8
50000 kPa | 861.1 | 855.3 | 849.4 | 843.5 | 837.7 | 831.9 | 825.9 | 819.9 | 813.6
55000 kPa | 863.4 | 857.6 | 851.7 | 846 | 840.3 | 834.5 | 828.7 | 822.7 | 816.7
60000 kPa | 865.5 | 859.8 | 853.9 | 848.2 | 842.6 | 836.9 | 831.2 | 825.5 | 819.6

CCCCCCCCCO [nonan-1-ol]
mass density [kg/m3]
Conditions | 278.15 K | 288.15 K | 298.15 K | 308.15 K | 318.15 K | 328.15 K | 338.15 K | 348.15 K | 358.15 K
100 kPa | 836.9 | 829.9 | 823.2 | 816.5 | 809.8 | 802.8 | 795.7 | 788.3 | 780.9
1000 kPa | 837.4 | 830.5 | 823.7 | 817.1 | 810.4 | 803.4 | 796.4 | 788.9 | 781.6
5000 kPa | 839.7 | 832.7 | 826.3 | 819.8 | 813.2 | 806.3 | 799.4 | 792.3 | 785
10000 kPa | 842.5 | 835.9 | 829.4 | 822.9 | 816.5 | 809.8 | 803 | 796.1 | 789
15000 kPa | 845.1 | 838.7 | 832.3 | 826 | 819.7 | 813.1 | 806.5 | 799.7 | 792.9
20000 kPa | 847.8 | 841.4 | 835.1 | 828.9 | 822.7 | 816.3 | 809.8 | 803.2 | 796.5
25000 kPa | 850.3 | 844 | 837.9 | 831.8 | 825.6 | 819.3 | 813 | 806.6 | 799.9
30000 kPa | 852.8 | 846.6 | 840.5 | 834.5 | 828.5 | 822.3 | 816.1 | 809.8 | 803.3
35000 kPa | 855.3 | 849.1 | 843.1 | 837.2 | 831.3 | 825.2 | 819.1 | 812.9 | 806.6
40000 kPa | 857.6 | 851.6 | 845.7 | 839.8 | 834 | 828 | 822 | 815.9 | 809.7
45000 kPa | 859.9 | 854 | 848.1 | 842.4 | 836.6 | 830.7 | 824.8 | 818.8 | 812.8
50000 kPa | 862.2 | 856.3 | 850.5 | 844.8 | 839.2 | 833.4 | 827.6 | 821.6 | 815.7
55000 kPa | 864.4 | 858.6 | 852.9 | 847.3 | 841.7 | 836 | 830.2 | 824.4 | 818.6
60000 kPa | 866.4 | 860.7 | 855 | 849.3 | 844 | 838.3 | 832.7 | 826.7 | 821.2

CCCCCCCCCCO [decan-1-ol]
mass density [kg/m3]
Conditions | 288.15 K | 298.15 K | 308.15 K | 318.15 K | 328.15 K | 338.15 K | 348.15 K | 358.15 K
100 kPa | 832.3 | 825.5 | 818.7 | 811.9 | 805 | 798 | 790.9 | 783.6
1000 kPa | 832.8 | 826 | 819.3 | 812.5 | 805.7 | 798.7 | 791.6 | 784.3
5000 kPa | 835.2 | 828.5 | 821.9 | 815.3 | 808.5 | 801.7 | 794.8 | 787.6
10000 kPa | 838 | 831.5 | 825 | 818.5 | 811.9 | 805.2 | 798.5 | 791.6
15000 kPa | 840.8 | 834.4 | 828 | 821.7 | 815.2 | 808.7 | 802 | 795.3
20000 kPa | 843.5 | 837.2 | 830.9 | 824.7 | 818.3 | 812 | 805.5 | 798.9
25000 kPa | 846.1 | 839.8 | 833.7 | 827.6 | 821.4 | 815.1 | 808.8 | 802.3
30000 kPa | 848.6 | 842.5 | 836.4 | 830.4 | 824.3 | 818.1 | 811.9 | 805.6
35000 kPa | 851.1 | 845.1 | 839.1 | 833.2 | 827.1 | 821.1 | 815 | 808.8
40000 kPa | 853.5 | 847.6 | 841.7 | 835.8 | 829.9 | 824 | 817.9 | 811.9
45000 kPa | 855.9 | 850 | 844.2 | 838.5 | 832.6 | 826.7 | 820.8 | 814.8
50000 kPa | 858.2 | 852.4 | 846.6 | 841 | 835.2 | 829.4 | 823.6 | 817.7
55000 kPa | 860.4 | 854.7 | 849 | 843.4 | 837.7 | 832.1 | 826.4 | 820.5
60000 kPa | 862.7 | 856.8 | 851.2 | 845.7 | 840.2 | 834.5 | 829 | 822.9
